Measured values as given in paper PMC9490236, “Accurate de novo design of membrane-traversing macrocycles” (Cell, 2022).
Values joined by “and” are separate entries in the source; they are usually repeats but may differ in a detail not shown here. Equal entries are not always repeated. Where two headings read alike, the source gives them in different places. Where a SMILES comes first, the peptide text is derived from it. [ ]: non-standard residue; d: D form. dNMeL = CN[C@H](CC(C)C)C(=O)O

Tests used:
[1] = Caco-2 permeability assay (apical to basolateral); format: in vitro ADME, human; settings: Caco-2, Caco_Papp_Average
Procedure, shortened: (§1)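 Caco-2 monolayers were grown on 0.4 μm Transwell inserts for 6 days. Peptides were applied apically at 50 μM with HBSS basolaterally and incubated 90 min at 37°C with shaking.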

[2] = test system: Caco-2 cells; test: Caco-2 permeability assay (apical to basolateral); format: in vitro ADME, human; settings: Caco-2
Procedure, shortened: as §1

[3] = Pharmacokinetics and oral bioavailability of D8.3.p1 and D10.1 in Balb/C female mice (PO, SQ, IV); format: in vivo
Protocol: In vivo bioavailability assays were conducted in mice and rats. D8.3.p1 and D10.1 were studied in female Balb/C mice by van Voorhis group at University of Washington. D11.2 was evaluated in Sprague Dawley (SD) rats by Robert Griffin’s group at Takeda Pharmaceuticals. D11.3 was studied in the male swiss albino mice by the contract research organization, GVK Biosciences Pvt. Ltd., Hyderabad, India. All animals used in these studies were handled in strict accordance with practices made to minimize suffering. All animal experiments conducted at the University of Washington, USA, and Takeda Pharmaceuticals, USA were approved by the Institutional Animal Care and Use Committee. Animal studies at GVK Biosciences were reviewed and approved by the Institutional Animal Ethics Committee of GVK Biosciences. We selected four designed macrocycles with diverse structures and in vitro rates of permeability for in vivo oral bioavailability studies in the rodent models. Due to the intensive resource requirements for such studies, these studies were conducted by three different research groups. D8.3.p1 and D10.1 were studied in female Balb/C mice by van Voorhis group at University of Washington. D11.2 was evaluated in Sprague Dawley (SD) rats by Robert Griffin’s group at Takeda Pharmaceuticals. D11.3 was studied in the male swiss albino mice by the contract research organization, GVK Biosciences Pvt. Ltd., Hyderabad, India. […] Blood samples were collected at multiple time points and plasma was separated from whole blood using centrifugation and stored at -80°C. […] Samples were mixed, centrifuged, and supernatant harvested for LC-MS analysis. For RP-HPLC analysis, peptides were evaluated using Agilent ZORBAX Eclipse Plus C18 1.8 μm, 2.1 mm x 50 mm and Waters Xevo TQ-S micro Triple Quadrupole/ACQUITY UPLC H-Class. […] Pharmacokinetic parameters were modeled using the Phoenix WinNonlin software package. […]

[4] = PAMPA
[5] = Parallel artificial membrane permeability assay (PAMPA); settings: average of replicates R1-R3; BQL = no significant peak detected for the peptide in the acceptor wells
[6] = D8.3.p1 IV 1 mg/kg, individual mice M1, M2, M3, 1 mg/kg
[7] = D8.3.p1 PO 5 mg/kg, individual mice M1, M2, M3, 5 mg/kg
[8] = D8.3.p1 SQ 5 mg/kg, individual mice M1, M2, M3
[9] = female, Balb/C, mouse, in vivo, iv, 1 mg/kg, Plasma level
[10] = female, Balb/C, mouse, in vivo, sc, 5 mg/kg, Plasma level

Question: Which Papp A→B [1] does the source give for `CC[C@@H](C)[C@H]1NC(=O)[C@@H](CC(C)C)NC(=O)[C@@H](CC(C)C)N(C)C(=O)[C@@H]2CCCN2C(=O)[C@@H](C(C)C)NC(=O)[C@H](CC(C)C)NC(=O)[C@@H](CC(C)C)N(C)C(=O)[C@@H]2CCCN2C1=O` [Design D8.3.p1, DLEU DVAL PRO *DLEU DLEU DILE PRO *DLEU] (cyclo(L[dV]P[dNMeL][dL][dI]P[dNMeL])) here?
Answer: The Papp A→B was 11.8 ×10⁻⁶ cm/s.

Question: And the Caco_R1 [2]?
Answer: The Caco_R1 was 13.1.

Question: What about the Caco_R3 [2] of the same molecule?
Answer: The Caco_R3 was 8.9.

Question: What about the CLP [3, 6] of the same molecule?
Answer: The CLP was 37.62 mL/min/kg and 49.17 mL/min/kg and 38.55 mL/min/kg.

Question: And the MRT [3, 6]?
Answer: Its MRT is 15.45 min and 13.12 min and 15.23 min.

Question: What about the T1/2 [3, 6] of the same molecule?
Answer: Its T1/2 is 14.5 min and 10.5 min and 11.24 min.

Question: And the VSS [3, 6]?
Answer: Its VSS is 0.79 L/kg and 0.75 L/kg and 0.62 L/kg.

Question: And the VZ [3, 6]?
Answer: The VZ was 0.89 L/kg and 0.87 L/kg and 0.59 L/kg.

Question: And the C0 ([3]; D8.3.p1 IV 1 mg/kg, individual mice M1, M2, M3, 1 mg/kg, read-out: C0)?
Answer: Its C0 is 1610 nM and 1470 nM.

Question: And the “Half-life T1/2” value ([3]; D8.3.p1 IV 1 mg/kg, mean n=3)?
Answer: The value was 12.08 min.

Question: What about the “Mean residence time MRT” value ([3]; D8.3.p1 IV 1 mg/kg, mean n=3) of the same molecule?
Answer: Its value is 14.60 min.

Question: What about the “Plasma clearance CLP” value ([3]; D8.3.p1 IV 1 mg/kg, mean n=3) of the same molecule?
Answer: The value was 41.78 mL/min/kg.

Question: What about the “Volume of distribution @ steady state VSS” value ([3]; D8.3.p1 IV 1 mg/kg, mean n=3) of the same molecule?
Answer: Its value is 0.72 ± 0.09 L/kg.

Question: What about the “Volume of distribution during elimination phase VZ” value ([3]; D8.3.p1 IV 1 mg/kg, mean n=3) of the same molecule?
Answer: The value was 0.78 ± 0.17 L/kg.

Question: And the C0 ([3]; D8.3.p1 IV 1 mg/kg, mean n=3, read-out: Initial concentration C0)?
Answer: Its C0 is 1530 ± 70 nM.

Question: What about the “Oral bioavailability F” value ([3]; D8.3.p1 PO 5 mg/kg vs IV 1 mg/kg, mean) of the same molecule?
Answer: Its value is 10.74%.

Question: And the Cl/F [3, 7]?
Answer: Its Cl/F is 0.0112 L/min and 0.00671 L/min and 0.00706 L/min.

Question: And the T1/2 [3, 7]?
Answer: Its T1/2 is 23.33 min and 18.86 min and 45.25 min.

Question: What about the Tmax [3, 7] of the same molecule?
Answer: The Tmax was 15 min and 30 min.

Question: What about the Cmax ([3]; D8.3.p1 PO 5 mg/kg, individual mice M1, M2, M3, 5 mg/kg, read-out: Cmax) of the same molecule?
Answer: Its Cmax is 220 nM and 190 nM.

Question: And the “Apparent clearance Cl/F” value ([3]; D8.3.p1 PO 5 mg/kg, mean n=3)?
Answer: The value was 0.00834 L/min.

Question: What about the “Half-life T1/2” value ([3]; D8.3.p1 PO 5 mg/kg, mean n=3) of the same molecule?
Answer: The value was 29.15 min.

Question: What about the “Time of max concentration Tmax” value ([3]; D8.3.p1 PO 5 mg/kg, mean n=3) of the same molecule?
Answer: Its value is 25 ± 0.01 min.

Question: What about the Cmax ([3]; D8.3.p1 PO 5 mg/kg, mean n=3, read-out: Max concentration Cmax) of the same molecule?
Answer: The Cmax was 210 ± 20 nM.

Question: What about the Cl/F [3, 8] of the same molecule?
Answer: Its Cl/F is 0.000617 L/min and 0.000577 L/min and 0.000312 L/min.

Question: And the T1/2 [3, 8]?
Answer: The T1/2 was 111.2 min and 101.86 min and 250.78 min.

Question: And the Tmax [3, 8]?
Answer: The Tmax was 60 min and 30 min.

Question: And the Cmax ([3]; D8.3.p1 SQ 5 mg/kg, individual mice M1, M2, M3, read-out: Cmax)?
Answer: Its Cmax is 840 nM and 1080 nM and 930 nM.

Question: What about the “Half-life T1/2” value ([3]; D8.3.p1 SQ 5 mg/kg, mean n=3) of the same molecule?
Answer: Its value is 154.61 min.

Question: And the “Time of max concentration Tmax” value ([3]; D8.3.p1 SQ 5 mg/kg, mean n=3)?
Answer: The value was 50 ± 17.32 min.

Question: What about the Cmax ([3]; D8.3.p1 SQ 5 mg/kg, mean n=3, read-out: Max concentration Cmax) of the same molecule?
Answer: The Cmax was 950 ± 120 nM.

Question: What about the Plasma level ([3]; female, Balb/C, mouse, in vivo, iv, 1 mg/kg, 5 min) of the same molecule?
Answer: The Plasma level was 990 nM.

Question: What about the Plasma level ([3]; female, Balb/C, mouse, in vivo, iv, 1 mg/kg, 0.25 h) of the same molecule?
Answer: Its Plasma level is 630 nM.

Question: And the level at time molar at 5 min [3, 9]?
Answer: Its level at time molar at 5 min is 1110 nM.

Question: And the level at time molar at 0.25 h [3, 9]?
Answer: The level at time molar at 0.25 h was 420 nM.

Question: And the level at time molar at 0.5 h [3, 9]?
Answer: The level at time molar at 0.5 h was 190 nM.

Question: What about the Plasma level ([3]; female, Balb/C, mouse, in vivo, sc, 5 mg/kg, 0.25 h) of the same molecule?
Answer: The Plasma level was 700 nM.

Question: And the Plasma level ([3]; female, Balb/C, mouse, in vivo, sc, 5 mg/kg, 0.5 h)?
Answer: The Plasma level was 710 nM.

Question: And the Plasma level ([3]; female, Balb/C, mouse, in vivo, sc, 5 mg/kg, 2 h)?
Answer: The Plasma level was 880 nM.

Question: And the Plasma level ([3]; female, Balb/C, mouse, in vivo, sc, 5 mg/kg, 6 h)?
Answer: Its Plasma level is 230 nM.

Question: And the level at time molar at 0.25 h [3, 10]?
Answer: Its level at time molar at 0.25 h is 510 nM.

Question: What about the level at time molar at 0.5 h [3, 10] of the same molecule?
Answer: The level at time molar at 0.5 h was 540 nM.

Question: What about the level at time molar at 1 h [3, 10] of the same molecule?
Answer: The level at time molar at 1 h was 840 nM.

Question: What about the level at time molar at 2 h [3, 10] of the same molecule?
Answer: Its level at time molar at 2 h is 720 nM.

Question: And the level at time molar at 6 h [3, 10]?
Answer: Its level at time molar at 6 h is 150 nM.

Question: What about the level at time molar at 24 h [3, 10] of the same molecule?
Answer: Its level at time molar at 24 h is 20 nM.

Question: And the level at time molar at 0.5 h ([3]; female, Balb/C, mouse, in vivo, sc, D8.3.p1 SQ 5 mg/kg, 30 min, individual mice M1, M2, M3, read-out: Plasma level)?
Answer: The level at time molar at 0.5 h was 1080 nM.

Question: And the AUC(0-inf) ([3]; female, Balb/C, mouse, in vivo, D8.3.p1 PO 5 mg/kg, mean n=3)?
Answer: Its AUC(0-inf) is 0.238 µM·h.

Question: And the AUC(0-t) ([3]; female, Balb/C, mouse, in vivo, D8.3.p1 PO 5 mg/kg, mean n=3, read-out: AUC0-t (converted))?
Answer: Its AUC(0-t) is 0.182 µM·h.

Question: What about the CL/F ([3]; female, Balb/C, mouse, plasma, sc, D8.3.p1 SQ 5 mg/kg, mean n=3, read-out: Apparent clearance Cl/F) of the same molecule?
Answer: Its CL/F is 0.502 mL/min.

Question: And the Tmax ([3]; mouse, in vivo, 5 mg/kg, Tmax)?
Answer: Its Tmax is 60 min.

Question: And the Plasma level ([3]; mouse, in vivo, iv, 1 mg/kg, 5 min)?
Answer: Its Plasma level is 1070 ± 70 nM.

Question: What about the Plasma level ([3]; mouse, in vivo, iv, 1 mg/kg, 0.5 h) of the same molecule?
Answer: Its Plasma level is 270 ± 90 nM.

Question: And the Plasma level ([3]; mouse, in vivo, iv, 1 mg/kg, 1 h)?
Answer: Its Plasma level is 60 ± 40 nM.

Question: What about the C0 ([3]; mouse, in vivo, iv, 1 mg/kg, C0) of the same molecule?
Answer: The C0 was 1520 nM.

Question: And the Plasma level ([3]; mouse, in vivo, po, 5 mg/kg, 1 h)?
Answer: The Plasma level was 120 ± 40 nM.

Question: And the Plasma level ([3]; mouse, in vivo, po, 5 mg/kg, 2 h)?
Answer: The Plasma level was 10 nM.

Question: And the Cmax ([3]; mouse, in vivo, po, 5 mg/kg, Cmax)?
Answer: Its Cmax is 230 nM.

Question: And the Tmax ([3]; mouse, in vivo, po, 5 mg/kg, Tmax)?
Answer: The Tmax was 30 min.

Question: What about the Plasma level ([3]; mouse, in vivo, sc, 5 mg/kg, 0.25 h) of the same molecule?
Answer: The Plasma level was 610 ± 130 nM.

Question: What about the Plasma level ([3]; mouse, in vivo, sc, 5 mg/kg, 0.5 h) of the same molecule?
Answer: Its Plasma level is 780 ± 280 nM.

Question: And the Plasma level ([3]; mouse, in vivo, sc, 5 mg/kg, 1 h)?
Answer: The Plasma level was 900 ± 50 nM.

Question: What about the Plasma level ([3]; mouse, in vivo, sc, 5 mg/kg, 2 h) of the same molecule?
Answer: Its Plasma level is 780 ± 90 nM.

Question: And the Plasma level ([3]; mouse, in vivo, sc, 5 mg/kg, 4 h)?
Answer: Its Plasma level is 340 ± 170 nM.

Question: What about the Plasma level ([3]; mouse, in vivo, sc, 5 mg/kg, 6 h) of the same molecule?
Answer: The Plasma level was 130 ± 120 nM.

Question: What about the Plasma level ([3]; mouse, in vivo, sc, 5 mg/kg, 24 h) of the same molecule?
Answer: Its Plasma level is 10 ± 0 nM.

Question: What about the PAMPA_R1 [4] of the same molecule?
Answer: The PAMPA_R1 was 5.23E-06.

Question: And the PAMPA_R3 [4]?
Answer: The PAMPA_R3 was 3.90E-06.

Question: What about the PAMPA_Papp_Avg [5] of the same molecule?
Answer: The PAMPA_Papp_Avg was 4.61E-06.
